Source: PubChem BioAssay AID330 (DTP/NCI, 2004)
Several values for one entry are separate records, joined by “and”; a condition that tells them apart may be missing. Equal values may be shown once. Inconclusive results and toxic doses are left out. How the source made its calls: active means survival T/C of 150% or more; inactive means T/C below 125% in these data.

Test system: P388 leukemia ip, CD2F1 mice, survival T/C
Assay: NCI In Vivo Anticancer Drug Screen. Data for tumor model P388 Leukemia (intraperitoneal) in CD2F1 (CDF1) mice
Conditions: endpoint: median survival time, higher = longer survival
Outline: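 Mice carrying the transplanted tumor received test compound or vehicle. Survival was recorded in each group, and the value is the treated-group measurement divided by that of the vehicle-treated control group.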

[1] = dose: 100.0 mg/kg/injection, schedule: Q01DX001 (ip), vehicle: saline with Tween-80
[2] = dose: 200.0 mg/kg/injection, schedule: Q01DX001 (ip), vehicle: saline with Tween-80
[3] = dose: 400.0 mg/kg/injection, schedule: Q01DX001 (ip), vehicle: saline with Tween-80
[4] = dose: 25.0 mg/kg/injection, schedule: Q01DX005 (ip), vehicle: saline with Tween-80
[5] = dose: 50.0 mg/kg/injection, schedule: Q01DX005 (ip), vehicle: saline with Tween-80
[6] = dose: 100.0 mg/kg/injection, schedule: Q01DX005 (ip), vehicle: saline with Tween-80
[7] = dose: 200.0 mg/kg/injection, schedule: Q01DX005 (ip), vehicle: saline with Tween-80

Measured: T/C

N#Cc1nc(CC(=O)c2ccccc2Cl)c(CC(=O)c2ccccc2Cl)nc1C#N
inactive: dose: 60.0 mg/kg/injection, schedule: Q01DX005 (ip), vehicle: saline with Tween-80 100 % of control | dose: 120.0 mg/kg/injection, schedule: Q01DX005 (ip), vehicle: saline with Tween-80 94 % of control | dose: 240.0 mg/kg/injection, schedule: Q01DX005 (ip), vehicle: saline with Tween-80 114 % of control

CCC(C)(OC(C)=O)C(=O)OC1C(=O)OC2CC3C(C)=CC(O)C(O)C3(C)C3C4(O)OCC23C1C(C)C4O (configuration not stated)
inactive: dose: 0.25 mg/kg/injection, schedule: Q01DX009 (ip), vehicle: saline + alcohol 103 % of control | dose: 0.5 mg/kg/injection, schedule: Q01DX009 (ip), vehicle: saline + alcohol 96 % of control | dose: 1.0 mg/kg/injection, schedule: Q01DX009 (ip), vehicle: saline + alcohol 96 % of control | dose: 2.0 mg/kg/injection, schedule: Q01DX009 (ip), vehicle: saline + alcohol 96 % of control | dose: 4.0 mg/kg/injection, schedule: Q01DX009 (ip), vehicle: saline + alcohol 99 % of control

CCCCCCCCCCC(O)Cn1ccnc1 (configuration not stated)
inactive: dose: 12.5 mg/kg/injection, schedule: Q01DX009 (ip), vehicle: saline with Tween-80 96 % of control | dose: 25.0 mg/kg/injection, schedule: Q01DX009 (ip), vehicle: saline with Tween-80 100 % of control | dose: 50.0 mg/kg/injection, schedule: Q01DX009 (ip), vehicle: saline with Tween-80 95 % of control

CCCn1c(Cl)c(/C=N\Nc2cccc([N+](=O)[O-])c2)c2ccccc21
inactive: [1] 91 % of control | [2] 92 % of control | [3] 91 % of control

CS(=O)(=O)NC(=O)NC(=S)c1ccc(Br)cc1
inactive: [1] 103 % of control | [2] 101 % of control | [3] 107 % of control

c1ccc(-c2cn3ccccc3n2)cc1
inactive: dose: 50.0 mg/kg/injection, schedule: Q01DX009 (ip), vehicle: Klucel (hydroxypropylcellulose) (HPC) 98 % of control | dose: 100.0 mg/kg/injection, schedule: Q01DX009 (ip), vehicle: Klucel (hydroxypropylcellulose) (HPC) 108 % of control | dose: 200.0 mg/kg/injection, schedule: Q01DX009 (ip), vehicle: Klucel (hydroxypropylcellulose) (HPC) 117 % of control

CNC(=O)OCc1c(COC(=O)NC)c2n(c1C)CS(=O)C2 (configuration not stated)
inactive: [4] 113 % of control | [5] 113 % of control | [6] 121 % of control and 122 % of control | [7] 113 % of control and 115 % of control

C[N+]1(C)CCC(Cl)CC1
inactive: dose: 3.75 mg/kg/injection, schedule: Q01DX005 (ip), vehicle: saline 104 % of control | dose: 7.5 mg/kg/injection, schedule: Q01DX005 (ip), vehicle: saline 103 % of control | dose: 15.0 mg/kg/injection, schedule: Q01DX005 (ip), vehicle: saline 99 % of control | dose: 30.0 mg/kg/injection, schedule: Q01DX005 (ip), vehicle: saline 100 % of control and 102 % of control

CCN(CC)c1ccc(C(=N)c2ccc(N(C)C)cc2)cc1
inactive: dose: 12.5 mg/kg/injection, schedule: Q01DX005 (ip), vehicle: Klucel (hydroxypropylcellulose) (HPC) 99 % of control | dose: 25.0 mg/kg/injection, schedule: Q01DX005 (ip), vehicle: Klucel (hydroxypropylcellulose) (HPC) 99 % of control | dose: 50.0 mg/kg/injection, schedule: Q01DX005 (ip), vehicle: Klucel (hydroxypropylcellulose) (HPC) 90 % of control and 92 % of control

Cc1c(O)c(=O)ccn1CCN
inactive: dose: 50.0 mg/kg/injection, schedule: Q01DX005 (ip), vehicle: saline 98 % of control and 102 % of control | dose: 100.0 mg/kg/injection, schedule: Q01DX005 (ip), vehicle: saline 100 % of control and 109 % of control | dose: 200.0 mg/kg/injection, schedule: Q01DX005 (ip), vehicle: saline 99 % of control and 104 % of control | dose: 400.0 mg/kg/injection, schedule: Q01DX005 (ip), vehicle: saline 91 % of control and 95 % of control

CCCC1C2C=CC(C(S(=O)(=O)c3ccccc3)C2)N1C(=O)OCC (configuration not stated)
inactive: [4] 100 % of control | [5] 103 % of control | [6] 102 % of control | [7] 102 % of control

CC(=O)OCc1c(Cl)nc2n1CCS2
inactive: dose: 25.0 mg/kg/injection, schedule: Q01DX001 (ip), vehicle: Klucel (hydroxypropylcellulose) (HPC) 103 % of control | dose: 50.0 mg/kg/injection, schedule: Q01DX001 (ip), vehicle: Klucel (hydroxypropylcellulose) (HPC) 96 % of control | dose: 100.0 mg/kg/injection, schedule: Q01DX001 (ip), vehicle: Klucel (hydroxypropylcellulose) (HPC) 102 % of control
